# Ends that are not written are not given here.
# What was measured:
# [1] = system: rat urinary bladder smooth muscle; assay: Rat urinary bladder smooth muscle test; details: 10^−11 to 10^−6 M
# Description: (§1) Female Wistar rats (250–300 g) were euthanized by CO2 asphyxiation followed by cervical dislocation under appropriate Home Office (UK) animal licenses. Full urinary bladder and ileum were carefully removed from the abdomen, then placed in cold Kreb's solution (118 mM NaCl, 4.7 mM KCl, 25 mM NaHCO3, 1.15 mM NaH2PO4, 2.5 mM CaCl2, 1.1 mM MgCl2, and 5.6 mM glucose), equilibrated with a carbogen mixture (95% O2, 5% CO2). The prepared smooth muscles linked with transducers were placed in 2 ml capacity organ baths with Kreb's solution flowing through at 2 ml/min and maintained at 37°C with constant bubbling of carbogen gas mixture (95% O2, […]) and equilibrated for 1 h prior to analysis. Then the viability of these smooth muscle preparations was tested by 60 mM KCl. Caeridins were tested at sequential molar concentrations in the range from 10^−6 M to 10^−11 M. Dose-response curves were depicted for each Caeridin on individual smooth muscle preparations (n = 5). Changes in tension of the smooth muscle preparations were detected by pressure transducers connected to a PowerLab System (ADInstruments Pty Ltd.). Data were recorded and calculated to obtain the means of responses and standard error of means (SEM). The dose-response curve of each Caeridin was established using best-fit algorithms through the data analysis package provided by GraphPad Prism (Version 6.0; GraphPad Software Inc., San Diego, CA, USA), and the comparative EC50 value for each peptide was depicted.
# rat ileum smooth muscle = assay: Rat ileum smooth muscle test; details: 10^−11 to 10^−6 M
# Description: as §1
# S. aureus NCTC10788 = assay: Antimicrobial test (broth microdilution); type: cell-based, Staphylococcus aureus
# Description: (§2) The antimicrobial activities were tested by the broth microdilution method and evaluated by the determination of MIC values against different tested microorganisms, the Gram-positive bacteria, S. aureus (NCTC 10788), E. faecalis (NCTC12697), and MRSA (NCTC 12493); the Gram-negative bacterium, E. coli (NCTC 10418); and the yeast, C. albicans (NCYC 1467). The microorganisms were cultured to their log phase in MHB and diluted to 5 × 10^5 CFU/ml then subsequently treated with peptide solutions of gradient concentrations. After incubation at 37°C overnight, the growth of microorganisms was detected at a wavelength of 550 nm using a Synergy HT plate reader (Biolise BioTek ELx808, Winooski, VT, USA). The MICs were determined as the lowest concentration of peptide where […].
# MRSA NCTC12493 = assay: Antimicrobial test (broth microdilution); type: cell-based, methicillin-resistant S. aureus
# Description: as §2
# E. faecalis NCTC12697 = assay: Antimicrobial test (broth microdilution); type: cell-based, Enterococcus faecalis
# Description: as §2
# E. coli NCTC10418 = assay: Antimicrobial test (broth microdilution); type: cell-based, Escherichia coli
# Description: as §2
# C. albicans NCYC1467 = assay: Antimicrobial test (broth microdilution); type: cell-based, Candida albicans
# Description: as §2
# E. coli = assay: Membrane permeability on E. coli (ONPG / β-galactosidase); type: cell-based, Escherichia coli; details: ONPG hydrolysis, absorbance 420 nm, 0-30 min, 37°C, 1 × 10^8 CFU/ml, PBS pH 7.4
# Description: The membrane permeabilsation of E.coli was determined by measuring the release of β-galactosidase activity from E. coli into the culture medium with ONPG as the substrate. The log-phase E. coli was grown in MHB medium containing 2% lactose at 37°C, and the cells were pelleted. The cell pellets were suspended in 10 mM PBS (pH 7.4) containing 1.5 mM ONPG and diluted to 1 × 10^8 CFU/ml. Aliquots of cells were incubated with different concentrations of peptides at 37°C. Permeabilisation was measured at 420 nm every 2 min from 0 to 30 min, which reflects ONPG influx into the cells working as an indicator of the permeability of the tested peptides.
# [2] = system: human microvascular endothelial cell line HMEC-1; assay: Membrane permeabilisation of HMEC-1 (LDH release); type: cell-based; details: 24 h; for LDH release from HMEC-1: relative to lysis buffer
# Description: The membrane permeabilisation of the human microvascular endothelial cell line, HMEC-1, was evaluated using the Pierce LDH Cytotoxicity Assay Kit (Thermo Fisher Scientific, San Francisco, CA, USA). HMEC-1 cells were cultured in MCDB-131 medium (Life Technology, Paisley, UK) with 10% FBS, 10 ng/ml epidermal growth factor (EGF) (Life Technology, Paisley, UK), 10 mM L-glutamine (Life Technology, Paisley, UK), and 1% penicillin-streptomycin (Sigma-Aldrich, St. Louise, MO, USA), at 37°C under 5% CO2. Cells were seeded in a 96-well plate at 5000 cells per well and cultured overnight to 80% confluency. Then, the cells were treated with different peptide solutions of gradient concentrations from 10^−7 M to 10^−4 M for 24 h at 37°C, 5% CO2, and H2O-treated cells were made as the spontaneous LDH release control. Lysis buffer was added to cells and incubated for 45 min at 37°C, 5% CO2, to produce the lysis buffer-treated cells which were referred to as maximum LDH release control. Then 50 μl of each sample supernatant was transferred to a 96-well flat-bottom plate in triplicate wells, to which 50 μl of reaction mixture was added, incubated, and protected from light at room temperature for 30 min. After addition of 50 μl Stop Solution to each sample well and removal of bubbles present in sample wells, the absorbance at 490 nm and 680 nm was measured. The absorbance values at 680 nm were subtracted from the absorbance values at 490 nm before calculation of the level of LDH release (cytotoxicity). The level of LDH release was calculated as (2) LDH release %=L−L0/L1−L0×100%, where L refers to sample-treated LDH activity, L0 to spontaneous (H2O-treated) LDH activity, and L1 to maximum (lysis buffer-treated) LDH activity.
# Data analysis was performed using one-way analysis of variance followed by Dunnett's multiple comparison tests with maximum LDH release control in GraphPad Prism (Version 6.0; GraphPad Software Inc., San Diego, CA, USA).
# [3] = MHB, 5 × 10^5 CFU/ml, 37°C overnight, 550 nm
substance,measurement,setting,value
GLFDIVGKLLGGLGL-NH2 [Caeridin-a1],smooth muscle activity (rat bladder),[1],did not show any smooth muscle activities
same,smooth muscle activity (rat ileum),rat ileum smooth muscle,did not show any smooth muscle activities
same,MBC,S. aureus NCTC10788,16 µM
same,MIC,S. aureus NCTC10788; [3],8 µM
same,MBC,MRSA NCTC12493,32 µM
same,MIC,MRSA NCTC12493; [3],16 µM
same,MBC,E. faecalis NCTC12697,64 µM
same,MIC,E. faecalis NCTC12697; [3],32 µM
same,MBC,E. coli NCTC10418,64 µM
same,MIC,E. coli NCTC10418; [3],32 µM
same,MFC,C. albicans NCYC1467,64 µM
same,MIC,C. albicans NCYC1467; [3],32 µM
same,membrane permeabilisation of E. coli at MIC and MBC,E. coli,induced inner membrane permeabilisation within 30 min
same,LDH release from HMEC-1,[2]; 10 μM,approximately 10%
same,LDH release from HMEC-1,[2]; 100 μM,about 50%
same,cytotoxicity to HMEC-1 cells,"[2]; 100 μM, LDH release",significant cytotoxicity
